Measurements: PubChem BioAssay AID652053 (Broad Institute, 2013)

System: Huh7 psiCHECK-miR122 Renilla luciferase reporter, 48 h
Assay: suppression of miR-122 activity, Renilla luciferase sensor – cell-based, Huh7 psiCHECK-miR122, cherry-pick, dose response (AID 652053)

Row | Structure (SMILES) | AC40
1 | COc1ccc(NS(=O)(=O)c2cc(NS(=O)(=O)c3cccs3)ccc2C)cc1 | 4.04 µM
2 | C[C@H]1CN([C@@H](C)CO)C(=O)c2cccc(NC(=O)Nc3ccccc3)c2O[C@@H]1CN(C)Cc1ccc(C(=O)Nc2ccccc2N)cc1 | 11.3 µM
3 | CS(=O)(=O)N(CC(=O)Nc1ccc(Cl)c(Cl)c1)C1CCCCC1 | 13.5 µM
4 | Cc1ccc(C)c(S(=O)(=O)Nc2ccc(O)cc2)c1 | 8.22 µM
5 | O=S(=O)(Nc1ccc(Cl)cc1)c1ccc2c(c1)CCO2 | 2.26 µM
6 | Cc1cc(C)c(S(=O)(=O)NC(C)C)c(C)c1-n1cnnn1 | 1.3 µM
7 | O=C1c2ccccc2C2=Nc3ccccc3SC(c3ccccc3F)C12 (stereo not drawn) | 21 µM
8 | CCOc1ccc(S(=O)(=O)Nc2cccc(Cl)c2)cc1 | 3.84 µM
9 | Cc1cc(S(=O)(=O)NCC(c2ccccc2)c2ccccc2)ccc1-n1cnnn1 | 2.23 µM
10 | Cc1cc(S(=O)(=O)Nc2cccc(O)c2)c(C)s1 | 31 µM
11 | Cc1ccc(SCCNC(=O)c2ccc(C)c(S(=O)(=O)Nc3cccc(C)c3)c2)cc1 | 3.74 µM
12 | O=C(CCc1ccc(S(=O)(=O)NC2CCCCC2)cc1)NCc1ccccc1 | 4.38 µM
13 | COc1ccc(S(=O)(=O)Nc2ccc(S(=O)(=O)N3CCCCC3)cc2)cc1C | 2.44 µM
14 | CCOc1ccc(Br)cc1S(=O)(=O)NCc1ccncc1 | 1.9 µM
15 | C=CCNC(=O)c1ccccc1NC(=O)c1ccc(Cl)c(S(=O)(=O)Nc2cccc(C)c2C)c1 | 0.734 µM
16 | CSc1ccc(S(=O)(=O)NC2CCCCC2)cc1 | 2.87 µM
17 | S=C(Nc1ccccc1Cl)NC1CCCCCC1 | 17.2 µM
18 | COc1ccc(-c2c(O)c(C#N)c(-c3ccccc3)n(-c3ccc(OC)cc3)c2=O)cc1 | 20 µM
19 | Clc1cccc(Cl)c1CSc1nnc(CN2CCOCC2)n1-c1ccccc1 | 10.4 µM
20 | Cc1ccc(S(=O)(=O)NC23CC4CC(CC(C4)C2)C3)cc1 | 2.15 µM
21 | CCCCNS(=O)(=O)c1ccc(OC)c(Cl)c1Cl | 3.99 µM
22 | O=S(=O)(/N=C(/Nc1ccc(Cl)c(S(=O)(=O)Nc2ccccc2Cl)c1)c1ccc(F)cc1)c1ccccc1 | 26.8 µM
23 | CCOc1ccc(Cl)cc1S(=O)(=O)NC1CCCC1 | 2.27 µM
24 | c1ccc(-n2nnnc2-c2cccc3ccccc23)cc1 | 10.6 µM
25 | COc1cc(S(=O)(=O)N2CCCCCC2)c(OC)cc1Br | 1.74 µM

Row | Structure (SMILES) | AC40
26 | Cc1ccc(NS(=O)(=O)c2cc(C(=O)NCCSc3ccc(C)cc3)ccc2C)cc1 | 4.89 µM
27 | COc1ccc(NC(=O)C(OC(=O)Cn2cnc3c2c(=O)n(C)c(=O)n3C)c2ccccc2)cc1Cl (stereo not drawn) | 7.87 µM
28 | C[C@@H]1CN([C@@H](C)CO)S(=O)(=O)c2ccc(C#CCN(C)C)cc2O[C@@H]1CN(C)Cc1ccc2c(c1)OCO2 | 8.29 µM
29 | CCCNC(=O)NC[C@@H]1[C@@H](c2ccc(C3=CCCC3)cc2)[C@H](CO)N1C(=O)CC | 5.75 µM
30 | CC(C)c1ccc(S(=O)(=O)Nc2ccc(-n3cnnn3)cc2)cc1 | 2.55 µM
31 | COc1ccc(OC)c(S(=O)(=O)N2CCC3(CC2)OCCN3S(=O)(=O)c2cccs2)c1 | 15.7 µM
32 | Cc1cc(C(C)(C)C)cc(S(=O)(=O)NCCO)c1C | 1.16 µM
33 | Cc1ccc(-c2n[nH]c(=O)c3ccccc23)cc1S(=O)(=O)Nc1ccc(F)cc1 | 0.293 µM
34 | CC(=O)c1cccc(NS(=O)(=O)c2ccc3c(c2)oc(=O)n3C)c1 | 7.31 µM
35 | Cc1cccc(NS(=O)(=O)c2ccc3c(c2)OCCO3)c1 | 1.57 µM
36 | O=S(=O)(NCc1cccnc1)c1ccc(Cl)c2ccccc12 | 4.69 µM
37 | Cc1ccc(S(=O)(=O)Nc2cccc3c2O[C@H](CN(C)Cc2ccc(C(=O)Nc4ccccc4N)cc2)[C@H](C)CN([C@H](C)CO)C3=O)cc1 | 10.8 µM
38 | CC(C)C(=O)Nc1ccc2c(c1)C(=O)N(C)[C@H]1CC[C@H](CC(=O)NCc3cccc(F)c3)O[C@H]1CO2 | 17.7 µM
39 | CCc1ccc(NS(=O)(=O)c2cc(OC)ccc2OC)cc1 | 0.866 µM
40 | Cc1ccc(C2CN(C)C3(C(=O)Nc4ccccc43)C23COc2ccccc2C3=O)cc1 (stereo not drawn) | 1.08 µM
41 | C[C@@H]1CN([C@@H](C)CO)C(=O)c2cccc(NS(=O)(=O)c3ccccc3)c2O[C@@H]1CN(C)Cc1ccc(C(=O)Nc2ccccc2N)cc1 | 9.09 µM
42 | O=C(c1cn(Cc2ccccc2)nc1-c1ccc(Cl)cc1)N1CCN(c2ccccn2)CC1 | 3.28 µM
43 | COc1ccc(NS(=O)(=O)c2ccc(NC(=S)NC(=O)C(C)C)cc2)cc1 | 1.34 µM
44 | COc1ccc(S(=O)(=O)N(C)C[C@H]2Oc3ccc(NC(=O)Nc4ccc(C(F)(F)F)cc4)cc3C(=O)N([C@@H](C)CO)C[C@H]2C)cc1 | 8.41 µM
45 | C[C@H](CO)N1C[C@H](C)[C@H](CN(C)Cc2ccc(C(=O)Nc3ccccc3N)cc2)Oc2ccc(NC(=O)Nc3ccc4c(c3)OCO4)cc2CC1=O | 8.06 µM
46 | O=C(Cc1ccccc1)N1CC[C@@H]2[C@@H](CO)Nc3ccc(-c4cccc(F)c4)cc3[C@@H]21 | 7.15 µM
47 | CC(C)(C)c1ccc(S(=O)(=O)Nc2ccc(C(O)(C(F)(F)F)C(F)(F)F)cc2)cc1 | 5.39 µM
48 | O=C(Cc1ccccc1)N1C[C@H]2[C@@H](c3ccccc31)[C@@H](CO)N2C(=O)C1CCCCC1 | 6.07 µM
49 | Cc1ccc(C)c(S(=O)(=O)Nc2ccc(-n3cnnn3)cc2)c1 | < 0.26 µM
50 | CN1C(=O)c2cc(NC(=O)Cc3ccccc3)ccc2OC[C@@H]2O[C@H](CC(=O)NCC3CC3)CC[C@@H]21 | 0.512 µM

Row | Structure (SMILES) | AC40
51 | C[C@H](CO)N1C[C@H](C)[C@H](CN(C)Cc2ccc(C(=O)Nc3ccccc3N)cc2)Oc2c(NC(=O)Nc3ccccc3)cccc2C1=O | 30.8 µM
52 | Cn1cc(CC(=O)Nc2cccc(C#N)c2)c2ccccc21 | 3.57 µM
53 | C[C@H](CO)N1C[C@H](C)[C@H](CN(C)Cc2ccc(Cl)c(Cl)c2)Oc2c(NC(=O)Nc3ccc4c(c3)OCO4)cccc2C1=O | 4.58 µM
54 | C[C@@H]1CN([C@@H](C)CO)C(=O)c2cccc(NC(=O)c3cnccn3)c2O[C@H]1CN(C)Cc1ccc(C(F)(F)F)cc1 | 19.2 µM
55 | O=C(NCC1CCCO1)C(c1cccs1)N(Cc1cccs1)C(=O)Cn1nnc(-c2cccs2)n1 (stereo not drawn) | 13.5 µM
56 | C[C@@H]1CCCCO[C@@H](CN(C)CC2CCCCC2)[C@@H](C)CN([C@H](C)CO)C(=O)c2cc(NC(=O)CCC(F)(F)F)ccc2O1 | 9.73 µM
57 | COc1cccc(C(=O)N2C[C@H]3[C@@H](c4ccccc42)[C@@H](CO)N3C(=O)c2ccc(F)cc2)c1 | 2.16 µM
58 | Cc1cc(C)c(C)c(S(=O)(=O)Nc2ccc(C(=O)N3CCCC3)cc2)c1C | 2 µM
59 | CC(=O)N1CCCc2cc(S(=O)(=O)Nc3ccc4c(c3)OCO4)ccc21 | 6.16 µM
60 | CC(C)n1nc(C(=O)Nc2cccc(S(=O)(=O)NCc3ccco3)c2)c2ccccc2c1=O | 2.61 µM
61 | CSc1ccc(S(=O)(=O)NC2CCCCCC2)cc1 | 1.72 µM
62 | Cc1ccc(NS(=O)(=O)c2cc(Br)cnc2N)cc1C | 2.36 µM
63 | COc1ccc(C)cc1S(=O)(=O)Nc1cc2c3c(c1)CCC(=O)N3CCC2 | 1.86 µM
64 | C[C@@H]1CN([C@@H](C)CO)C(=O)Cc2cc(NC(=O)Nc3ccc4c(c3)OCO4)ccc2O[C@@H]1CN(C)C(=O)Nc1cccc2ccccc12 | 10.9 µM
65 | COc1ccc(OC)c(S(=O)(=O)Nc2cc3c4c(c2)CCN4C(=O)CC3)c1 | 2.85 µM
66 | CCn1nccc1C(=O)Nc1ccc(S(=O)(=O)NC23CC4CC(CC(C4)C2)C3)cc1 | 2.24 µM
67 | COc1cc(NS(=O)(=O)c2ccc(C)c(C)c2)c(OC)cc1Cl | 15.2 µM
68 | C[C@@H]1CN([C@H](C)CO)C(=O)Cc2cc(N(C)C)ccc2O[C@H]1CN(C)Cc1ccc(C(=O)Nc2ccccc2N)cc1 | 10.3 µM
69 | CCc1c(C(=O)NCc2ccccc2Cl)[nH]c(C)c1C(C)=O | 1.38 µM
70 | C[C@@H]1CN([C@H](C)CO)C(=O)c2cccc(NC(=O)C3CC3)c2O[C@H]1CN(C)Cc1ccc(C(F)(F)F)cc1 | 4.08 µM
71 | COc1cccc(CNS(=O)(=O)c2cc(-c3cc(C)no3)ccc2C(C)C)c1 | 5.07 µM
72 | CC(C)CNS(=O)(=O)c1ccc(CCC(=O)NCCC2=CCCCC2)cc1 | 23 µM
73 | O=C(OCCN=C1NS(=O)(=O)c2ccccc21)c1ccccc1 | 9.59 µM
74 | Cc1cc(C)nc(N/C(=N\S(=O)(=O)Cc2ccccc2)Nc2ccccc2Br)n1 | 8.51 µM
75 | COc1cc(NS(=O)(=O)c2csc(C(N)=O)c2)cc(OC)c1 | 1.51 µM

Row | Structure (SMILES) | AC40
76 | CC(=O)N1CC(C)Sc2ccc(S(=O)(=O)NCc3ccc(F)cc3)cc21 (stereo not drawn) | 4.49 µM
77 | CCOc1ccc(Br)cc1S(=O)(=O)Nc1cccc(S(=O)(=O)N(C)c2ccccc2)c1 | 3.18 µM
78 | CC(C)(C)NS(=O)(=O)c1ccc2[nH]c3c(c2c1)CCCCC3 | 5.04 µM
79 | Cc1ccc(S(=O)(=O)Nc2cccc(S(=O)(=O)N3CCCC3)c2)cc1C | 1.03 µM
80 | O=S(=O)(NCCc1ccccc1)c1ccc(F)cc1Br | 1.45 µM
81 | CCN(CC)C(=S)Nc1ccc(Cl)c(Cl)c1 | 16 µM
82 | Cc1cccc(NS(=O)(=O)c2cc3c4c(c2)CCC(=O)N4CCC3)c1 | 1.94 µM
83 | CN(Cc1ccccc1)S(=O)(=O)c1ccc(NC(=S)NC(=O)C2CCCCC2)cc1 | 13.4 µM
84 | N#Cc1ccc(NC(=S)N2CCC3CC2c2cc(-c4ccc5c(c4)OCO5)ccc23)cc1 (stereo not drawn) | 0.31 µM
85 | CCOC(=O)c1c(C)[nH]c(C)c1S(=O)(=O)NCCc1ccco1 | 2.96 µM
86 | COc1cccc(NS(=O)(=O)c2c(C)cc(C)cc2C)c1 | 3.37 µM
87 | CCCCNS(=O)(=O)c1ccc2nc(-c3cccnc3)cc(C(=O)NC3CCCC3)c2c1 | 5.37 µM
88 | CCCCOc1ccc(S(=O)(=O)Nc2ccc(NC(C)=O)cc2)cc1 | 10.3 µM
89 | C[C@@H]1CN([C@@H](C)CO)C(=O)c2cc(NC(=O)Nc3ccccc3)ccc2O[C@@H]1CN(C)Cc1ccc(C(=O)Nc2ccccc2N)cc1 | 13.4 µM
90 | Cc1cc(C(=O)Nc2cccc3c2O[C@H](CN(C)Cc2ccc(C(F)(F)F)cc2)[C@@H](C)CN([C@H](C)CO)C3=O)n(C)n1 | 0.943 µM
91 | COC(=O)c1ccc(C)c(NS(=O)(=O)c2ccc(OC)c(OC)c2)c1 | 21.5 µM
92 | Cc1cc2c(cc1S(=O)(=O)NCCc1ccccc1)NC(=O)CO2 | 4.41 µM
93 | Cc1noc(C)c1NC(=O)Nc1cccc2c1O[C@@H](CN(C)Cc1ccc(Cl)c(Cl)c1)[C@@H](C)CN([C@H](C)CO)C2=O | 0.826 µM
94 | Cc1ccc(C)c(S(=O)(=O)Nc2cc3c4c(c2)CC(=O)N4CCC3)c1 | 1.88 µM
95 | Cc1ccccc1NS(=O)(=O)c1cc(C(=O)Nc2cccnc2)ccc1C | 5.17 µM
96 | CN(C)c1ccc(C(=O)c2ccc(N(C)C)c3ccccc23)cc1 | 4.07 µM
97 | C[C@H](CO)N1C[C@H](C)[C@@H](CN(C)Cc2ccc(C(F)(F)F)cc2)Oc2c(NC(=O)C3CCCCC3)cccc2C1=O | 0.596 µM
98 | COc1cccc(C(O)c2ncc(-c3cccc(F)c3)[nH]2)c1 (stereo not drawn) | 17.3 µM
